This experiment has as its target T1, intracellular domain of DDR1 (Homo sapiens, UniProt Q08345).
T1 construct: the intracellular domain of DDR1 (in a final concentration of 5 ng/μL) (Carna Biosciences, Inc.); purchased Carna Biosciences, Inc
Kind of experiment: Evaluation of DDR1 inhibition activity with HTRF KinEASE-TK kit. The class given is biochemical. The note with it: DDR1 intracellular domain 5 ng/μL, ATP 25 μm/L, TK Substrate-biotin 1000 nmol/L, room temperature, one hour. The procedure:
The DDR1 inhibition activity in the compounds of Examples 1 to 80 was evaluated with HTRF® KinEASE-TK kit (Cisbio Bioassays).
Each test substance was dissolved in dimethyl sulfoxide and then used for the evaluation as described below. Moreover, each of test substances and reagents was diluted in the kinase buffer (Cisbio Bioassays) prepared by adding thereto MgCl2, MnCl2, DTT, and the Supplemental Enzyme buffer (Cisbio Bioassays) to concentrations of 5 mmol/L, 0.5 mmol/L, 0.25 mmol/L, and 50 nmol/L, respectively, and then used. Each test substance (in DMSO in a final concentration of 1%), the intracellular domain of DDR1 (in a final concentration of 5 ng/μL) (Carna Biosciences, Inc.), the phosphate donor ATP (in final concentration of 25 μm/L) (Sigma), and the substrate TK Substrate-biotin (in a final concentration of 1000 nmol/L) (Cisbio Bioassays) were added to a 384-well black plate (Corning) and allowed to react at room temperature for one hour. After completion of the reaction, the TK Antibody-Cryptate (Cisbio Bioassays) and the Streptavidin-XL665 (Cisbio Bioassays) were added thereto and allowed to react at room temperature for one hour. In addition, the plate was provided with a well to which a test substance was not added, and with a well to which a test substance and the intracellular domain of DDR1 were […].
The fluorescence intensity in each well was measured using a multi-label counter (Envision, PerkinElmer; excitation wavelength: 320 nm, measurement wavelength: 665 nm and 620 nm) to calculate a ratio (the fluorescence intensity at 665 nm/the fluorescence intensity at 620 nm). The inhibition rate (%) of a test substance at each concentration was calculated based on the formula below: Inhibition rate (%)=([the ratio obtained from the well containing no test substance]−[the ratio from a well containing a test substance])/([the ratio obtained from the well containing no test substance]−[the ratio obtained from the well containing no intracellular domain of DDR1 and no test substance])×100.
The calculated inhibition rates were fitted to a sigmoidal dose-response curve by regression analysis using the Prism 5.04 (GraphPad Software, Inc.) to calculate the IC50 value of the test substance.
(In TR-FRET formats the signal depends on donor and acceptor labels being close together.)

Here are results for 29 compounds from patent publication US10280145B2 (Toray Industries, Inc., priority 2015, dated 2019).

T1 sequence (Q08345 439-913 limits assumed): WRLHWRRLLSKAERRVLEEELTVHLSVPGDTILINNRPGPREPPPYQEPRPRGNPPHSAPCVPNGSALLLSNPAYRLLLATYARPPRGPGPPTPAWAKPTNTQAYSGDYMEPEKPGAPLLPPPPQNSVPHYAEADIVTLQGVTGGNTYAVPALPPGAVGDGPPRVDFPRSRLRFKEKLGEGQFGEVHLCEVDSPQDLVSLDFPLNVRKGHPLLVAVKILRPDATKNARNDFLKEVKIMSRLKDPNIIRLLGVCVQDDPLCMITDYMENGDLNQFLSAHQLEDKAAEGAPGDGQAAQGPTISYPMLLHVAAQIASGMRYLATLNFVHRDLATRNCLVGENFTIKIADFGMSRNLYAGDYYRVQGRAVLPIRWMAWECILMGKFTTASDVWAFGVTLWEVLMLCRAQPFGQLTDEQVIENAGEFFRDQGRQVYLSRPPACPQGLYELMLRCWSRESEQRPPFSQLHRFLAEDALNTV

Consider `O=C(Nc1cc(C(F)(F)F)ccc1O[C@@H]1CCNC1)N[C@H]1CC[C@H](OCc2ccncc2)CC1` [Example 35, 1-(trans-4-(pyridin-4-ylmethoxy)cyclohexyl)-3-(2-((R)-pyrrolidin-3-yloxy)-5-(trifluoromethyl)phenyl)urea], for which the IC50 (as a rule, the concentration that gives 50% inhibition) came to 88.6 nM. In other words, the double-digit nanomolar range.

Compound `COc1ccc(OC(F)(F)F)cc1NC(=O)N[C@H]1CC[C@H](Oc2cc(N3CCOCC3)ncn2)CC1` [Example 59, 1-(2-methoxy-5-(trifluoromethoxy)phenyl)-3-(trans-4-((6-morpholinopyrimidin-4-yl)oxy)cyclohexyl)urea] gave an IC50 of 335 nM.

The compound `COc1ccc(C(F)(F)F)cc1NC(=O)N[C@H]1CC[C@H](COCc2cccnc2)CC1` [Example 73, 1-(2-methoxy-5-(trifluoromethyl)phenyl)-3-(trans-4-((pyridin-3-ylmethoxy)methyl)cyclohexyl)urea] returned an IC50 of 57.7 nM. Compared with the last compound, the IC50 is about 5.8-fold lower.

In the case of `COc1ccc(OC(F)(F)F)cc1NC(=O)N[C@H]1CC[C@H](COCc2ccncc2)CC1` [Example 74, 1-(2-methoxy-5-(trifluoromethoxy)phenyl)-3-(trans-4-((pyridin-4-ylmethoxy)methyl)cyclohexyl)urea], half-maximal inhibition (IC50) required 25.2 nM.

For the compound `O=C(Nc1cc(C(F)(F)F)ccc1N1CCOCC1)N[C@H]1CC[C@H](OCc2ccncc2)CC1` [Example 28, 1-(2-morpholino-5-(trifluoromethyl)phenyl)-3-(trans-4-(pyridin-4-ylmethoxy)cyclohexyl)urea], 103 nM corresponded to half-maximal inhibition (IC50). This IC50 lies about 4.1-fold higher than the previous one.

Compound `O=C(Nc1cc(C(F)(F)F)ccc1OC1COC1)N[C@H]1CC[C@H](Oc2ccnc(-c3ccncc3)n2)CC1` [Example 47, 1-(2-(oxetan-3-yloxy)-5-(trifluoromethyl)phenyl)-3-(trans-4-((2-(pyridin-4-yl)pyrimidin-4-yl)oxy)cyclohexyl)urea] registered a half-inhibitory concentration (IC50) of 56.6 nM.

Consider `COc1c(CO)cc(S(F)(F)(F)(F)F)cc1NC(=O)N[C@H]1CC[C@H](Oc2ccnc(N3CCOCC3)n2)CC1` [Example 5, 1-(3-(hydroxymethyl)-2-methoxy-5-(pentafluorosulfanyl)phenyl)-3-(trans-4-((2-morpholinopyrimidin-4-yl)oxy)cyclohexyl)urea], for which the IC50 is 65.9 nM.

On to `COc1c(CO)cc(C(F)(F)F)cc1NC(=O)N[C@H]1CC[C@H](Oc2ccnc(NCCO)n2)CC1` [Example 61, 1-(trans-4-((2-((2-hydroxyethyl)amino)pyrimidin-4-yl)oxy)cyclohexyl)-3-(3-(hydroxymethyl)-2-methoxy-5-(trifluoromethyl)phenyl)urea], for which the IC50 was 57.9 nM.

Regarding `O=C(Nc1cc(CO)cc(C(F)(F)F)c1)N[C@H]1CC[C@H](OCc2ccncc2)CC1` [Example 20, 1-(3-(hydroxymethyl)-5-(trifluoromethyl)phenyl)-3-(trans-4-(pyridin-4-ylmethoxy)cyclohexyl)urea], the IC50 amounted to 114 nM.

The compound `O=C(Nc1cc(C(F)(F)F)ccc1OC1CNC1)N[C@H]1CC[C@H](OCc2ccncc2)CC1` [Example 31, 1-(2-(azetidin-3-yloxy)-5-(trifluoromethyl)phenyl)-3-(trans-4-(pyridin-4-ylmethoxy)cyclohexyl)urea] came in with an IC50 of 76.7 nM. This IC50 and that of the compound before are within 1.5-fold of each other.

`COc1ccc(OC(F)(F)F)cc1NC(=O)N[C@H]1CC[C@H](COCc2cccnc2)CC1` [Example 72, 1-(2-methoxy-5-(trifluoromethoxy)phenyl)-3-(trans-4-((pyridin-3-ylmethoxy)methyl)cyclohexyl)urea] came in with an IC50 of 82.2 nM. This IC50 and that of the compound before are within 1.5-fold of each other.

`COc1c(CO)cc(OC(F)(F)F)cc1NC(=O)N[C@H]1CC[C@H](OCc2cccnc2)CC1` [Example 67, 1-(3-(hydroxymethyl)-2-methoxy-5-(trifluoromethoxy)phenyl)-3-(trans-4-(pyridin-3-ylmethoxy)cyclohexyl)urea] gave an IC50 of 9.69 nM.

In turn, `COc1ccc(C(F)(F)F)cc1NC(=O)N[C@H]1CC[C@H](Oc2nccc(-c3cccnc3)n2)CC1` [Example 40, 1-(2-methoxy-5-(trifluoromethyl)phenyl)-3-(trans-4-((4-(pyridin-3-yl)pyrimidin-2-yl)oxy)cyclohexyl)urea] yielded an IC50 of 98 nM.

In turn, `COc1ccc(OC(F)(F)F)cc1NC(=O)N[C@H]1CC[C@H](OCc2ccncc2)CC1` [Example 19, 1-(2-methoxy-5-(trifluoromethoxy)phenyl)-3-(trans-4-(pyridin-4-ylmethoxy)cyclohexyl)urea] gave an IC50 of 46.2 nM. Compared with the last compound, the IC50 is about 2.1-fold lower.

`CCOc1ccc(C(F)(F)F)cc1NC(=O)N[C@H]1CC[C@H](Oc2ccnc(N3CCOCC3)n2)CC1` [Example 46, 1-(2-ethoxy-5-(trifluoromethyl)phenyl)-3-(trans-4-((2-morpholinopyrimidin-4-yl)oxy)cyclohexyl)urea]: half-maximal inhibition (IC50) required 531 nM. This IC50 lies about 11-fold higher than the previous one.

`COc1ccc(C(F)(F)F)cc1NC(=O)N[C@H]1CC[C@H](Oc2ncccn2)CC1` [Example 11, 1-(2-methoxy-5-(trifluoromethyl)phenyl)-3-(trans-4-(pyrimidin-2-yloxy)cyclohexyl)urea] had an IC50 of 384 nM.

Take `CNc1cc(O[C@H]2CC[C@H](NC(=O)Nc3cc(OC(F)(F)F)cc(CO)c3OC)CC2)ncn1` [Example 70, 1-(3-(hydroxymethyl)-2-methoxy-5-(trifluoromethoxy)phenyl)-3-(trans-4-((6-(methylamino)pyrimidin-4-yl)oxy)cyclohexyl)urea]: it took 13.4 nM to reach half-maximal inhibition (IC50).

Compound `O=C(Nc1ccc(CO)c(C(F)(F)F)c1)N[C@H]1CC[C@H](OCc2ccncc2)CC1` [Example 23, 1-(4-(hydroxymethyl)-3-(trifluoromethyl)phenyl)-3-(trans-4-(pyridin-4-ylmethoxy)cyclohexyl)urea] showed an IC50 of 402 nM.

`COc1ccc(OC(F)(F)F)cc1NC(=O)N[C@H]1CC[C@H](Oc2ncccn2)CC1` [Example 9, 1-(2-methoxy-5-(trifluoromethoxy)phenyl)-3-(trans-4-(pyrimidin-2-yloxy)cyclohexyl)urea] showed an IC50 of 349 nM.

Compound `COc1ccc(C(F)(F)F)cc1NC(=O)N[C@H]1CC[C@H](Oc2ccnc(-c3cccnc3)n2)CC1` [Example 37, 1-(2-methoxy-5-(trifluoromethyl)phenyl)-3-(trans-4-((2-(pyridin-3-yl)pyrimidin-4-yl)oxy)cyclohexyl)urea] returned an IC50 of 149 nM. This IC50 is about 2.3-fold lower than that of the compound before.

`O=C(Nc1cc(C(F)(F)F)ccc1Cl)N[C@H]1CC[C@H](Oc2ncccn2)CC1` [Example 58, 1-(2-chloro-5-(trifluoromethyl)phenyl)-3-(trans-4-(pyrimidin-2-yloxy)cyclohexyl)urea] displayed an IC50 of 528 nM.

`O=C(Nc1cc(C(F)(F)F)ccc1Cl)N[C@H]1CC[C@H](OCc2ccncc2)CC1` [Example 29, 1-(2-chloro-5-(trifluoromethyl)phenyl)-3-(trans-4-(pyridin-4-ylmethoxy)cyclohexyl)urea] registered an IC50 of 133 nM.

Take `COc1ccc(OC(F)(F)F)cc1NC(=O)N[C@H]1CC[C@H](Oc2ccnc(N3CCOCC3)n2)CC1` [Example 1, 1-(2-methoxy-5-(trifluoromethoxy)phenyl)-3-(trans-4-((2-morpholinopyrimidin-4-yl)oxy)cyclohexyl)urea]: the IC50 is 476 nM.

With `CNc1nccc(O[C@H]2CC[C@H](NC(=O)Nc3cc(OC(F)(F)F)ccc3OC)CC2)n1` [Example 3, 1-(2-methoxy-5-(trifluoromethoxy)phenyl)-3-(trans-4-((2-(methylamino)pyrimidin-4-yl)oxy)cyclohexyl)urea], 141 nM corresponded to half-maximal inhibition (IC50).

For the compound `COc1ccc(C(F)(F)F)cc1NC(=O)N[C@H]1CC[C@H](OCc2ccncc2)CC1` [Example 24, 1-(2-methoxy-5-(trifluoromethyl)phenyl)-3-(trans-4-(pyridin-4-ylmethoxy)cyclohexyl)urea], the IC50 stood at 124 nM.

`COc1ccc(OC(F)(F)F)cc1NC(=O)N[C@H]1CC[C@H](Oc2cccnc2)CC1` [Example 18, 1-(2-methoxy-5-(trifluoromethoxy)phenyl)-3-(trans-4-(pyridin-3-yloxy)cyclohexyl)urea]: the IC50 amounted to 162 nM.

For the compound `CNc1cc(O[C@H]2CC[C@H](NC(=O)Nc3cc(C(F)(F)F)ccc3OC3CCNCC3)CC2)ncn1` [Example 43], the IC50 amounted to 31.3 nM.

In turn, `COc1ccc(OC(F)(F)F)cc1NC(=O)N[C@H]1CC[C@H](Oc2ccncn2)CC1` [Example 2, 1-(2-methoxy-5-(trifluoromethoxy)phenyl)-3-(trans-4-(pyrimidin-4-yloxy)cyclohexyl)urea] displayed an IC50 of 229 nM. This IC50 is about 7.3-fold higher than that of the compound before.

On to `CNc1ccnc(O[C@H]2CC[C@H](NC(=O)Nc3cc(OC(F)(F)F)ccc3OC)CC2)n1` [Example 54, 1-(2-methoxy-5-(trifluoromethoxy)phenyl)-3-(trans-4-((4-(methylamino)pyrimidin-2-yl)oxy)cyclohexyl)urea], for which half-maximal inhibition (IC50) was put at 95.1 nM. This IC50 lies about 2.4-fold lower than the previous one.
